For series [1], the system named is human red blood cells (hRBC). Briefly: Hemolysis. Type of series: cell-based. Conditions: red cells of human, 1 h, 200. In outline: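 Washed fresh hRBC (20% v/v) were incubated with peptides at 200 μg/mL for 1 h at 37° C with shaking at 300 rpm. Supernatant OD540 was read after centrifugation and dilution, blank-corrected, and expressed as percent of the 2% Triton X-100 (100% lysis) control; PBS with 10% water gave 0%.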

In the next series the test system is male ICR mice. Briefly: Tolerability in a mouse model (Maximum Tolerated Dose assay). Type of series: in vivo. Conditions: groups of 3. Put shortly:
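Peptides in 0.9% NaCl (pH 6.5-7.6) given s.c. at 30 or 40 mg/kg, twice 12 h apart, to groups of 3 male ICR mice (23±3 g). Acute toxic signs (mortality, convulsions, tremors, sedation) and autonomic effects (diarrhea, salivation, piloerection) observed for 30 min after each dose.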

In series [2] the test system is Acinetobacter baumannii DSM 30008. Type of series: cell-based. Conditions: DSM 30008. Put shortly:
(§1)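 CLSI broth microdilution: inoculum ~10^6 CFU/mL in cation-adjusted Mueller-Hinton II broth, with peptide in serial two-fold dilutions plus Polysorbate 80 (0.002% final). MIC (μg/mL) is the lowest concentration without visible growth after 18-20 hours at 35° C.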

Series [3] deals with Acinetobacter baumannii 872842. The series is classed as cell-based. The settings on record: 872842. Put shortly:
as §1

For series [4], the system named is Escherichia coli ATCC 25922. Type of series: cell-based. The settings on record: ATCC 25922. Put shortly: as §1
The test system of series [5] is Klebsiella pneumoniae 968733. The series is classed as cell-based. The settings on record: 968733. Put shortly: as §1
Series [6] deals with Enterobacter cloacae 848840. The series is classed as cell-based. Conditions: 848840. In outline:
as §1

Series [7] concerns Klebsiella pneumoniae SSI #3010. Type of series: cell-based. The settings on record: SSI #3010. Put shortly:
as §1

Series [8] concerns Pseudomonas aeruginosa ATCC 27853. The series is classed as cell-based. Conditions: ATCC 27853. In outline:
as §1

For a further series, the system named is Escherichia coli 926415. The series is classed as cell-based. Conditions: 926415. In outline:
as §1

The mark [9] stands for this setting: 2 × 40 mg/kg s.c. at a 12-hr interval.

The structures appear in SMILES notation. In brackets after ≈: the same amount, converted by molar mass. Where a SMILES comes first, the peptide text is derived from it. Bridges are numbered along the chain shown (N, C = ends). Roman numbers before positions name the chains, in order. [ ]: non-standard residue; d: D form. dDab = NCC[C@@H](N)C(=O)O; Dab = NCC[C@H](N)C(=O)O; Abu = CC[C@H](N)C(=O)O; Dap = NC[C@H](N)C(=O)O

Take `CC[C@@H]1NC(=O)[C@H](CO)NC(=O)[C@H](Cc2c[nH]c3ccccc23)NC(=O)[C@H](CO)NC(=O)[C@@H](CCN)NC(=O)[C@H](CCC(=O)N[C@@H](CCN)C(=O)N[C@H](C(=O)N[C@@H](CN)C(=O)N[C@H]2CCNC(=O)[C@H]([C@@H](C)O)NC(=O)[C@H](CCN)NC(=O)[C@H](CCN)NC(=O)[C@H](CC)NC(=O)[C@@H](CC(C)C)NC(=O)[C@H](CCN)NC2=O)[C@@H](C)O)NC(=O)[C@H](CCN)NC(=O)[C@H](Cc2ccc(O)cc2)NC(=O)[C@@H](NC(=O)[C@@H](NC(C)=O)C(C)C)CSSC[C@@H](C(=O)N[C@@H](CO)C(N)=O)NC1=O` [Ex. 339] (I: Ac-VCY[Dab]E[dDab]SWS[Abu]CS-NH2 / II: [Dab]T[Dap][Dab][Dab][dL][Abu][Dab][Dab]T; disulfide I:2-I:11; amide I:5-II:N; lactam II:4-II:C): the “Hemolysis at 200 μg/mL” value in [1] is <1%. Moreover, the Mortality and dose in the series with male ICR mice (setting [9]) is recorded as 0/3 died at 2 × 40 mg/kg. Further, the “Acinetobacter baumannii DSM 30008 MIC” value in [2] turned out to be 0.0625 µg/mL. The MIC in series [3] worked out at 0.125 µg/mL (≈ 0.053 µM); in [5] it was 0.5 µg/mL (≈ 0.212 µM); in series [6], 0.125 µg/mL (≈ 0.053 µM); against Escherichia coli 926415, 0.5 µg/mL (≈ 0.212 µM). For the same compound, in [4], the “Escherichia coli ATCC 25922 MIC” value came to 0.0625 µg/mL. In series [7], the “Klebsiella pneumoniae SSI #3010 MIC” value worked out at 0.0625 µg/mL. Moreover, in series [8], the “Pseudomonas aeruginosa ATCC 27853 MIC” value was 0.125 µg/mL.
Consider `CC(=O)N[C@H](C(=O)N[C@H]1CSSC[C@@H](C(=O)N[C@@H](CO)C(N)=O)NC(=O)[C@H](C(C)C)NC(=O)[C@H](CCN)NC(=O)[C@H](Cc2c[nH]c3ccccc23)NC(=O)[C@H](CO)NC(=O)[C@@H](CO)NC(=O)[C@H](CCC(=O)N[C@@H](CCN)C(=O)N[C@H](C(=O)N[C@@H](CN)C(=O)N[C@H]2CCNC(=O)[C@H]([C@@H](C)O)NC(=O)[C@H](CCN)NC(=O)[C@H](CCN)NC(=O)[C@H](CC(C)C)NC(=O)[C@@H](CC(C)C)NC(=O)[C@H](CCN)NC2=O)[C@@H](C)O)NC(=O)[C@H](CCN)NC(=O)[C@H](Cc2ccc(O)cc2)NC1=O)C(C)C` [Ex. 296] (I: Ac-VCY[Dab]E[dS]SW[Dab]VCS-NH2 / II: [Dab]T[Dap][Dab][Dab][dL]L[Dab][Dab]T; disulfide I:2-I:11; amide I:5-II:N; lactam II:4-II:C), for which, in [1], the “Hemolysis at 200 μg/mL” value is listed as <1%. Moreover, in the series with male ICR mice (setting [9]), the Mortality and dose is recorded as 0/3 died at 2 × 40 mg/kg. Also, the minimal inhibitory concentration (MIC) in [2] was determined as 0.125 µg/mL (≈ 0.0521 µM); in series [3] it was 0.25 µg/mL (≈ 0.104 µM); in series [4], 0.125 µg/mL (≈ 0.0521 µM); in [5], 4 µg/mL (≈ 1.67 µM); in [6], 0.5 µg/mL (≈ 0.208 µM); in series [7] it was 0.0625 µg/mL (≈ 0.0261 µM). In addition, the values for the MIC (in series [8]; against Escherichia coli 926415) were 0.25 µg/mL (≈ 0.104 µM) and 0.5 µg/mL (≈ 0.208 µM), respectively.
For `CC[C@@H]1NC(=O)[C@@H](CC(C)C)NC(=O)[C@H](CCN)NC(=O)[C@@H](NC(=O)[C@H](CN)NC(=O)[C@@H](NC(=O)[C@H](CCN)NC(=O)CC[C@@H]2NC(=O)[C@H](CO)NC(=O)[C@H](Cc3ccc(O)cc3)NC(=O)[C@@H](NC(=O)[C@@H](NC(C)=O)C(C)C)CSSC[C@@H](C(=O)N[C@@H](CO)C(N)=O)NC(=O)[C@H]([C@@H](C)CC)NC(=O)[C@H](CO)NC(=O)[C@H](Cc3c[nH]c4ccccc34)NC(=O)[C@H](CO)NC(=O)[C@@H](CCN)NC2=O)[C@@H](C)O)CCNC(=O)[C@H]([C@@H](C)O)NC(=O)[C@H](CCN)NC(=O)[C@H](CCN)NC1=O` [Ex. 260] (I: Ac-VCYSE[dDab]SWSICS-NH2 / II: [Dab]T[Dap][Dab][Dab][dL][Abu][Dab][Dab]T; disulfide I:2-I:11; amide I:5-II:N; lactam II:4-II:C), the “Hemolysis at 200 μg/mL” value in series [1] is <1%. In addition, in the series with male ICR mice (2 × 30 mg/kg s.c. at a 12-hr interval), the Mortality and dose was 0/3 died at 2 × 30 mg/kg. The MIC in [2] was 0.01562 µg/mL (≈ 0.00659 µM); in series [3], 0.0625 µg/mL (≈ 0.0264 µM); in series [4], 0.01562 µg/mL (≈ 0.00659 µM); in [5] it was 0.5 µg/mL (≈ 0.211 µM); in [6], 0.0625 µg/mL (≈ 0.0264 µM); in series [7], 0.0625 µg/mL (≈ 0.0264 µM). In addition, the minimum inhibitory concentration (MIC) in [8] worked out at 0.0625 µg/mL (≈ 0.0264 µM); in the series with Escherichia coli 926415, 0.5 µg/mL (≈ 0.211 µM).

(Values after patent publication US11629171B2, “Beta-hairpin peptidomimetics” (POLYPHOR AG, priority 2017, dated 2023).)
